From US12415786B2, “Substituted 2-heteroarylaminobenzenes and the salts thereof and their use as herbicidal agents” (Bayer Aktiengesellschaft, priority 2019, dated 2025)

How the values were obtained:
Format in all cases: in vivo
[1] = test system: Amaranthus retroflexus; assay: Herbicidal post-emergence action (greenhouse pots), AMARE; settings: 1280 g/ha, visual rating about 3 weeks after treatment vs untreated controls
Outline: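 Foliar application to potted greenhouse weeds at the one-leaf stage used 1280 g/ha in 600 L/ha water with 0.5% additive (WP or EC). Plants then stayed under optimum conditions about 3 weeks before visual rating, where 100% meant death and 0% matched untreated.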

[2] = test system: Poa annua; assay: Herbicidal pre-emergence action (greenhouse pots), POAAN; settings: 1280 g/ha, visual scoring after about 3 weeks vs untreated controls
Outline: (§1)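 Pre-emergence soil-surface treatment at 1280 g/ha of wettable-powder or emulsion-concentrate formulations (0.5% additive, 600 L/ha water), applied after sowing in sandy loam pots. Percent activity rated by eye about 3 weeks later in greenhouse relative to untreated plants.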

[3] = test system: Poa annua; assay: Herbicidal early post-emergence action (96-well microtiter plates), POAAN; settings: 1900 g/ha, scored 9 to 12 days after treatment, 100% = plants have died, 0% = like untreated control plants
Outline: (§2)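 Activity was scored by eye 9 to 12 days after treatment (100% = plants dead, 0% = like untreated controls). Spraying used emulsion concentrates at 1900 g/ha in 2200 L/ha water, applied to cotyledon-stage seedlings raised 5 to 7 days in quartz sand in 96-well plates under controlled conditions.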

[4] = test system: Matricaria inodora; assay: Herbicidal pre-emergence action (greenhouse pots), MATIN; settings: 1280 g/ha, visual scoring after about 3 weeks vs untreated controls
From the text: (§3) In the examples and tables below, the following abbreviations are used: • Undesired Plants/Weeds: • ABUTH: Abutilon theophrasti • AGSTE: Agrostis tenuis • AMARE Amaranthus retroflexus • ECHCG: Echinochloa crus-galli • LOLRI: Lolium rigidum • MATIN: Matricaria inodora • POAAN: Poa annua • SETVI: Setaria viridis • STEME: Stellaria media A. Herbicidal Early Post-Emergence Action Seeds of mono- and dicotyledonous weed plants were placed in plastic pots in sandy loam soil (doubly sown with one species each of mono- or dicotyledonous weed plants per pot) and covered with soil. The compounds of the invention, formulated in the form of wettable powders (WP) or as emulsion concentrates (EC), were then applied onto the surface of the covering soil as aqueous suspension or emulsion with addition of 0.5% additive at a water application rate of 600 liters per hectare (converted). After the treatment, the pots were placed in a greenhouse and kept under good growth conditions for the test plants. After about 3 weeks, the effect of the preparations was scored visually in comparison with untreated controls as percentages. For example, 100% activity=the plants have died, 0% activity=like untreated control plants. Tables C1-C8 below show the effects of selected compounds of the general formula (I) according to Table 1 above on various harmful plants and an application rate corresponding to 1280 g/ha, which were obtained by the experimental procedure mentioned above.

[5] = test system: Setaria viridis; assay: Herbicidal post-emergence action (greenhouse pots), SETVI; settings: 1280 g/ha, rated after about 3 weeks, 100% = plants have died, 0% = like untreated control plants
From the text: (§4) In the examples and tables below, the following abbreviations are used: • Undesired Plants/Weeds: • ABUTH: Abutilon theophrasti • AGSTE: Agrostis tenuis • AMARE Amaranthus retroflexus • ECHCG: Echinochloa crus-galli • LOLRI: Lolium rigidum • MATIN: Matricaria inodora • POAAN: Poa annua • SETVI: Setaria viridis • STEME: Stellaria media A. Herbicidal Early Post-Emergence Action Seeds of mono- and dicotyledonous weed plants were placed in plastic pots in sandy loam soil (doubly sown with in each case one species of mono- or dicotyledonous weed plants per pot), covered with soil and cultivated in a greenhouse under controlled growth conditions. 2 to 3 weeks after sowing, the test plants were treated at the one-leaf stage. The compounds of the invention, formulated in the form of wettable powders (WP) or as emulsion concentrates (EC), were applied onto the green parts of the plants as aqueous suspension or emulsion with addition of 0.5% additive at a water application rate of 600 liters per hectare (converted). After the test plants had been kept in the greenhouse under optimum growth conditions for about 3 weeks, the activity of the preparations was rated visually in comparison to untreated controls. For example, 100% activity=the plants have died, 0% activity=like untreated control plants. Tables B1-B8 below show the effects of selected compounds of the general formula (I) according to Table 1 above on various harmful plants and an application rate corresponding to 1280 g/ha, which were obtained by the experimental procedure mentioned above.

[6] = test system: Stellaria media; assay: Herbicidal pre-emergence action (greenhouse pots), STEME; settings: 1280 g/ha, visual scoring after about 3 weeks vs untreated controls
Outline: as §1

[7] = test system: Amaranthus retroflexus; assay: Herbicidal pre-emergence action (greenhouse pots), AMARE; settings: 1280 g/ha, visual scoring after about 3 weeks vs untreated controls
Outline: as §1

[8] = test system: Abutilon theophrasti; assay: Herbicidal post-emergence action (greenhouse pots), ABUTH; settings: 1280 g/ha, visual rating about 3 weeks after treatment vs untreated controls
From the text: as §4

[9] = test system: Echinochloa crus-galli; assay: Herbicidal post-emergence action (greenhouse pots), ECHCG; settings: 1280 g/ha, rated after about 3 weeks, 100% = plants have died, 0% = like untreated control plants
From the text: as §4

[10] = test system: Agrostis tenuis; assay: Herbicidal early post-emergence action (96-well microtiter plates), AGSTE; settings: 1900 g/ha, scored 9 to 12 days after treatment, 100% = plants have died, 0% = like untreated control plants
Outline: as §2

[11] = test system: Setaria viridis; assay: Herbicidal pre-emergence action (greenhouse pots), SETVI; settings: 1280 g/ha, visual scoring after about 3 weeks vs untreated controls
Outline: as §1

[12] = test system: Stellaria media; assay: Herbicidal post-emergence action (greenhouse pots), STEME; settings: 1280 g/ha, visual rating about 3 weeks after treatment vs untreated controls
From the text: as §4

[13] = test system: Poa annua; assay: Herbicidal post-emergence action (greenhouse pots), POAAN; settings: 1280 g/ha, visual rating about 3 weeks after treatment vs untreated controls
From the text: as §4

[14] = test system: Echinochloa crus-galli; assay: Herbicidal pre-emergence action (greenhouse pots), ECHCG; settings: 1280 g/ha, visual scoring after about 3 weeks vs untreated controls
From the text: as §3

[15] = test system: Abutilon theophrasti; assay: Herbicidal pre-emergence action (greenhouse pots), ABUTH; settings: 1280 g/ha, visual scoring after about 3 weeks vs untreated controls
From the text: as §3

Compound	herbicidal activity AMARE [1] [%]	herbicidal activity POAAN [2] [%]	POAAN (herbicidal activity, scored visually in comparison to untreated controls) [3] [%]	herbicidal activity MATIN [4] [%]	SETVI (herbicidal activity, rated visually in comparison to untreated controls) [5] [%]	herbicidal activity STEME [6] [%]	herbicidal activity AMARE [7] [%]	herbicidal activity ABUTH [8] [%]	ECHCG (herbicidal activity, rated visually in comparison to untreated controls) [9] [%]	AGSTE (herbicidal activity, scored visually in comparison to untreated controls) [10] [%]	herbicidal activity SETVI [11] [%]	herbicidal activity STEME [12] [%]	herbicidal activity POAAN [13] [%]	herbicidal activity ECHCG [14] [%]	herbicidal activity ABUTH [15] [%]
N#Cc1cccc(Nc2ncc(Cl)cn2)c1Oc1ccc(F)cc1F [Example 1-289]	100	100	80	100	90	100	100	90	100	80	100	100			
N#Cc1cccc(Nc2ncc(Cl)cn2)c1Oc1ccc(Cl)cc1 [Example 1-288]	100	100	80		90	100	100	90	100	80	100		100	90	
N#Cc1cccc(Nc2ncc(F)cn2)c1Oc1ccc(F)cc1F [Example 1-270]	100	100	80	100	90	100	100	90	90	80	100	100		100	
N#Cc1cccc(Nc2ncc(Cl)cn2)c1Oc1ccc(C(F)(F)F)cc1 [Example 1-298]	100	100	80	90	90	100	100	90		80	100	100	90		
N#Cc1cccc(Nc2ncc(F)cn2)c1Oc1cccc(Cl)c1 [Example 1-268]	90		80				90			100					90
N#Cc1cccc(Nc2ncc(F)cn2)c1Oc1cccc(F)c1 [Example 1-266]	100	100	100	100		100	100	100	100	80	100	100		90	
N#Cc1ccc(Oc2c(C#N)cccc2Nc2ncccn2)cc1 [Example 1-261]	100	100	80	100		100	100			80	100			100	100
N#Cc1ccc(Oc2c(C#N)cccc2Nc2ncc(F)cn2)cc1 [Example 1-280]	100	100	100	100		100	100			100	100	100		100	100
N#Cc1cccc(Nc2ncc(F)cn2)c1Oc1ccc(Cl)cc1F [Example 1-275]	100	100	100	90	90	100	100	90	90	80	100	100		90	
